Results from patent US20080033026A1, “Antimicrobial compositions, methods and systems” (priority 2006, published 2008).

Experiments:
Assay type in all cases: cell-based
[1] = system: Candida albicans (ATCC 10231); experiment: MIC and MBC determination (broth dilution)
Method: (§1) The determination of the MIC and MBC of 9-decenoic acid conformed to the procedure printed in the Federal Register, June 1994 and the present NCCLS M11-A4 protocol. Challenge organisms were prepared as follows. The MIC and MBC of 9-decenoic acid and the methyl ester of 9-decenoic acid were determined for the following challenge organisms: Staphylococcus aureus (ATCC 6538), Pseudomonas aeruginosa (ATCC 15442), Staphylococcus epidermidis (ATCC 12228), Klebsiella pneumoniae (ATCC 4352), Escherichia coli 0157:H7 (ATCC 43895) and Candida albicans (ATCC 10231). Stock cultures of each organism were transferred onto suitable culture media, Mueller-Hinton Agar (MHA) plates, and incubated for 24 hours (+2 hours) at 37° C. (+2° C.). On the day of the test, the top of at least three to five well-isolated colonies were transferred via wire loop to a tube containing 4 to 5 ml of Trypticase Soy Broth (TSB). The TSB culture was incubated for 2 to 6 hours and turbidity was adjusted with sterile saline to achieve the turbidity of a McFarland 0.5 Standard.
(§2) The concentrated 9-decenoic acid (97%) was diluted in Mueller-Hinton Broth (MHB) to yield a 25,000 ppm stock solution of the 9-decenoic acid. For each organism, 12 dilutions of the 9-decenoic acid in MHB were prepared ranging from 0.25% to 0.00049%. The test solution of the methyl ester of 9-decenoic acid was formulated in the same manner.
(§3) A 2-ml aliquot of appropriately diluted 9-decenoic acid solution or methyl ester of 9-decenoic acid was placed in each tube. Each tube was inoculated with 0.05 ml of a 1:10 dilution of one challenge organism. Tubes were incubated at 37° C. (±2° C.) for 20-24 hours and observed for microbial growth visually and by spectrophotometer. […] (±2° C.) for 20-24 hours and visually observed for growth.
(§4) Controls were run for sterility, viability and organism confirmation. It was determined that all cultures were viable and pure.
(§5) The MBC was defined as the concentration of 9-decenoic acid or the methyl ester of 9-decenoic acid that completely eradicated viable organisms from the test system.

[2] = system: Escherichia coli 0157:H7 (ATCC 43895); experiment: MIC and MBC determination (broth dilution)
Method: as §1, §2, §3, §4, §5

[3] = system: Klebsiella pneumoniae (ATCC 4352); experiment: MIC and MBC determination (broth dilution); details: Mueller-Hinton Broth, 20-24 h, 37° C.
Method: as §1, §2, §3, §4, §5

[4] = system: Pseudomonas aeruginosa (ATCC 15442); experiment: MIC and MBC determination (broth dilution); details: Mueller-Hinton Broth, 20-24 h, 37° C.
Method: as §1, §2, §3, §4, §5

[5] = system: Campylobacter jejuni (ATCC 29428); experiment: Preservative effectiveness on food pathogens (US Pharmacopoeia 23)
Method: The effectiveness of 9-decenoic acid on food pathogens was determined using the protocol on preservative effectiveness found in the US Pharmacopoeia 23, 1995.
Stock cultures of the Listeria monocytogenes (ATCC 1911-1), Salmonella enteritidis (ATCC 13076) and Campylobacter jejuni (ATCC 29428) were transferred for at least three consecutives days on Trypticase Soy Agar (TSA) and incubated at 30-35° C. for 18-24 hours. On the day of the test, the cells were washed from the agar surface with sterile saline containing 0.05% w/v Polysorbate 80 (SS+) and the suspension was centrifuged at 2000 rpm for 15 minutes and resuspended in SS+. The suspension was diluted to approximately 10^8 CFU/ml.
[…] The samples were dispensed in 20 ml aliquots in sterile test tubes. For each concentration tested, a 0.1 ml aliquot of each inoculum was added to a final concentration of 10^5 to 10^6 CFU/ml. The tubes were incubated at room temperature and sampled on days 0, 1, 2, 4, 7, 14, 21 and 28.
At each sample point, 1.0 ml aliquots were withdrawn, serially diluted and plated in triplicate on TSA. The plates were incubated at 30-35° C. for 2-4 days. The colonies were counted and the average CFU/ml was calculated. Controls for purity, viability and sterility were performed as described previously.
According to the US Pharmacopoeia, a test compound is an effective preservative if the concentrations of viable bacteria remain at or below the initial concentrations during the first fourteen days and after 28 days.
Additionally, test organisms in Tables 9-11 were exposed to the 9-decenoic acid for several minutes before analysis at Day 0. As shown in the Tables 9-11, significant biocidal activity was observed even within this short time period for the test organisms, illustrating the effectiveness of 9-decenoic acid as a biocidal agent.

[6] = Mueller-Hinton Broth, 20-24 h, 37° C.

## C=CCCCCCCCC(=O)O [9-decenoic acid]
[1]; [6]
  MIC: 0.0625%
[1]; subculture on TSA
  MBC: 0.0625%
[2]; [6]
  MIC: 0.125%
[2]; subculture on TSA
  MBC: 0.125%
[3]
  MIC: 0.0625%
[4]
  MIC: 0.0625%
[5]; 0.0078% 9-decenoic acid, exposure day 0
  Log reduction: 0 log
[5]; 0.0078% 9-decenoic acid, exposure day 1
  Log reduction: 0.67 log
[5]; 0.0078% 9-decenoic acid, exposure day 2
  Log reduction: 5.1 log
[5]; 0.0078% 9-decenoic acid, exposure day 4
  Log reduction: 5.1 log
[5]; 0.0078% 9-decenoic acid, exposure day 7
  Log reduction: 5.1 log
[5]; 0.0078% 9-decenoic acid, exposure day 14
  Log reduction: 5.1 log
[5]; 0.0078% 9-decenoic acid, exposure day 21
  Log reduction: 5.1 log
[5]; 0.0078% 9-decenoic acid, exposure day 28
  Log reduction: 5.1 log
[5]; 0.015% 9-decenoic acid, exposure day 0
  Log reduction: 2.8 log
[5]; 0.015% 9-decenoic acid, exposure day 1
  Log reduction: 5.1 log
[5]; 0.015% 9-decenoic acid, exposure day 2
  Log reduction: 5.1 log
[5]; 0.015% 9-decenoic acid, exposure day 4
  Log reduction: 5.1 log
[5]; 0.015% 9-decenoic acid, exposure day 7
  Log reduction: 5.1 log
[5]; 0.015% 9-decenoic acid, exposure day 14
  Log reduction: 5.1 log
[5]; 0.015% 9-decenoic acid, exposure day 21
  Log reduction: 5.1 log
[5]; 0.015% 9-decenoic acid, exposure day 28
  Log reduction: 5.1 log
[5]; 0.03% 9-decenoic acid, exposure day 0
  Log reduction: 5.1 log
[5]; 0.03% 9-decenoic acid, exposure day 1
  Log reduction: 5.1 log
[5]; 0.03% 9-decenoic acid, exposure day 2
  Log reduction: 5.1 log
[5]; 0.03% 9-decenoic acid, exposure day 4
  Log reduction: 5.1 log
[5]; 0.03% 9-decenoic acid, exposure day 7
  Log reduction: 5.1 log
[5]; 0.03% 9-decenoic acid, exposure day 14
  Log reduction: 5.1 log
[5]; 0.03% 9-decenoic acid, exposure day 21
  Log reduction: 5.1 log
[5]; 0.03% 9-decenoic acid, exposure day 28
  Log reduction: 5.1 log
[5]; US Pharmacopoeia definition, 28 days
  Concentration at which effective preservative: ≤ 0.0078%
[5]; at 0.0015%
  Exposure time at which bactericidal: 1 days
[5]; at 0.0078%
  Exposure time at which bactericidal: 2 days
[5]; for 0.003%
  Exposure time at which bactericidal: 0 days
